Results on 6 molecules are retold here after US12104143B2, “Compositions comprising cellulase with a nonionic surfactant and a quaternary ammonium compound” (ECOLAB USA INC., priority 2018, dated 2024).

One data set relates to cellulase activity. In words: Shelf life stability by enzyme activity assay, incubated at 37° C. over 8 weeks (Examples 8-10). The class given is physicochemical. To be noted: for remaining cellulase activity: 4 weeks at 37° C. How it is done: The impact of pH on shelf life stability was examined. […] The compositions were adjusted to a pH of 4.00, 4.25, and 4.50. Enzyme stability was assessed by an activity assay.
The compositions were adjusted to a pH of 4.25. Two control compositions were also prepared, one without a surfactant and one with the anionic surfactant, […] (SLS), as a negative control. Enzyme stability was assessed by an activity assay. […] The control containing no surfactant approached 0% remaining activity after the 8-week period.
Different stabilizers—glycerol and PEG 200—were tested to assess their effect on shelf life stability of formulations including a quaternary amine. […] The compositions were adjusted to a pH of 4.25. Enzyme stability was assessed by an activity enzyme. A control composition was also prepared having no stabilizer.

The test system of data set [1] is dark eyed fruit flies (DEFF). The data set is described as follows: Adult fly emergence test, dark eyed fruit flies (DEFF). The class given is in vivo. The note with it: 1.8% sodium citrate, pH about 4.5; 1% active Bardac 205M, 0.5% Cellulase B or 2% Tween 20 (Test Comp. C, B, A). How it is done:
Tests were performed to assess the cleaning compositions' effectiveness against insects. Small flies, which are common near clogged drains for beverage towers were used for these tests. Carolina Biological Formula 2-24 Instant Drosophila Medium was mixed with water in equal parts liquid to media by volume. A small pinch of active yeast was also added. The media was allowed to sit for two days before the start of the test, allowing the yeast time to ferment and ensure there will be enough food available for fly larvae when introduced in the media. Ten larvae of each fly species are placed into the fruit fly vials containing media two days after starting the media. The age of the larvae varies, but the majority of the larvae in each vial were mid instars larvae. Mature larvae were avoided to prevent pupation before the product is added. Each treatment had 5 replicates, for a total of 50 larvae of each species per treatment. Larvae were collected from the media of existing fly rearing containers. Emergence of adult flies was recorded at one week, two weeks, and three weeks to determine how many of the […] larvae had completed development and emerged as adults. The test was maintained at 80° F. and ambient humidity. Tween 20 was tested as an exemplary nonionic surfactant. DRAIN EASE FLOW from Novozymes was tested as an exemplary enzyme composition. […]

The next data set relates to DRAIN EASE FLOW activity. In words: Enzyme stability: retained DRAIN EASE FLOW activity in degrading a sugar snake after incubation at 37° C. (Example 6). The class given is physicochemical. To be noted: 20% stabilizer, 1.0% active Bardac 205M, pH about 4.5. How it is done: Enzyme stability was tested in cleaning compositions prepared with differing stabilizers. […] The effect of pH on stability was also assessed by testing compositions at a pH of 4.5 and 5.5. […] Enzyme stability was again assessed by an activity assay. […] This increased stability is even more pronounced when formulated with 1% active Bardac […].

Data set [2] is described as follows: Cellulase catalyzed hydrolysis of bacterial cellulose (sugar snake degradation) with stabilizers (Example 7). The note with it: 10% stabilizer; 0.5 wt. % DRAIN EASE FLOW, 2 wt. % Tween 20, 0.1 wt. % Bardac 205M, pH about 4.0; 20 mL/g, 2 hours. The class given is biochemical. How it is done:
The stabilizers tested were PEG 200, Glycerol, Propylene Glycol, and Sucrose. A composition was also prepared without a stabilizer. All the compositions were prepared in water at a pH of about 4.0. A piece of sugar snake weighing about 5 grams was used to screen enzyme performance. The chemistry was dosed at 20 mL/g sugar snake and incubated for 2 hours. The relative enzyme performance was determined at each concentration by comparing the performance to control formulations lacking stabilizer. The results are provided in FIG. 11 where 40 indicates 40% degradation.

Where only a bound is given, the exact number is not on record here.

In the case of `CCCCCCCCCCCC(=O)OCCOCCOCCOCCOCCOCCOCCOCCOCCOCCOCCOCCOCCOCCOCCOCCOCCOCCOCCOCCOCC(OCCOCCOCCOCCOCCOCCOCCOCCOCCOCCOCCOCCOCCOCCOCCOCCOCCOCCOCCOCCO)C1OCC(OCCOCCOCCOCCOCCOCCOCCOCCOCCOCCOCCOCCOCCOCCOCCOCCOCCOCCOCCOCCO)C1OCCOCCOCCOCCOCCOCCOCCOCCOCCOCCOCCOCCOCCOCCOCCOCCOCCOCCOCCOCCO` (stereo not drawn) [Tween 20, polyethylene glycol sorbitan monolaurate], the “residual activity after 8 weeks” value with cellulase activity (2 wt. % surfactant (or none), 0.2 wt. % Bardac 205M, 10 wt. % PEG 200, 0.5 wt. % DRAIN EASE FLOW, pH 4.25, 37° C.) was 55%. Besides, the “shelf stability ranking among surfactants” value in the data set with cellulase activity (2 wt. % surfactant, 0.2 wt. % Bardac 205M, 10 wt. % PEG 200, pH 4.25, 37° C., 8 weeks) is listed as “best stability”. Further, the “adult DEFF emergence relative to the water and buffer only controls” value in data set [1] is listed as “not statistically significant”.

In the data set with cellulase activity (10% stabilizer, both quaternary amine concentrations (175 ppm and 1000 ppm), pH 4.25), `OCC(O)CO` [glycerol] yielded a remaining cellulase activity greater than 95%. In addition, in the data set with cellulase activity (10 wt. % stabilizer or none, 175 ppm or 1000 ppm Bardac 205M, pH 4.25, 37° C.), the “shelf life stability ranking among stabilizers” value was “best stability”. Also, the “enzyme stability relative to control formulations lacking stabilizer” value in the data set with DRAIN EASE FLOW activity is listed as “enhanced stability”.

In the case of `CC(O)CO` (stereo not drawn) [propylene glycol], the “enzyme stability relative to control formulations lacking stabilizer” value with DRAIN EASE FLOW activity is recorded as “did not enhance stability”.

Take `OC[C@H]1O[C@@](CO)(O[C@H]2O[C@H](CO)[C@@H](O)[C@H](O)[C@H]2O)[C@@H](O)[C@@H]1O` [sucrose]: in data set [2], the “sugar snake degradation performance versus control formulations lacking stabilizer” value is reported as “did not statistically impact performance”.

As to polyethylene glycol 200 [PEG 200], the remaining cellulase activity in the data set on cellulase activity (10% stabilizer, 175 ppm quaternary amine, pH 4.25) was greater than 40%. The shelf life stability result with cellulase activity (10% stabilizer, 1000 ppm quaternary, pH 4.25, 37° C.) is listed as “enhanced stability”. The “enzyme stability relative to control formulations lacking stabilizer” value with DRAIN EASE FLOW activity is “enhanced stability”.

polyethylene glycol 400 [PEG 400]: in the data set with DRAIN EASE FLOW activity, the “enzyme stability relative to control formulations lacking stabilizer” value was “did not enhance stability”.
